The values below come from patent US10919916B2, “Boron-containing small molecules” (Bill & Melinda Gates Foundation, priority 2016, dated 2021).

Values after ≈ are worked out from the molar mass of the structure shown. Read-outs that look alike come from different tables or passages of the source.

The test system of test [1] is Streptococcus pneumoniae (ATCC 49619). Nature of the test: Antibacterial MIC assay (microbroth dilution, CLSI). It counts as cell-based. An excerpt: (§1) All MIC testing of bacteria followed the Clinical and Laboratory Standards Institute (CLSI) guidelines for antimicrobial testing of aerobic bacteria (Methods for Dilution Antimicrobial Susceptibility Tests for Bacteria that Grow Aerobically; Approved Standard—Tenth Edition, M07-A10; Performance Standards for Antimicrobial Susceptibility Testing; Twenty-fifth Informational Supplement, M100-S25).
Briefly, the microbroth dilution MIC method was used to quantitatively measure the in vitro antibacterial activity of a compound against a given bacterial isolate. […] Bacteria were grown in cation-adjusted Mueller-Hinton broth, with additions as required per species growth requirements (e.g. 3% lysed horse blood for fastidious organisms such as S. pneumoniae). A direct colony suspension in saline was prepared from colonies on an overnight agar plate to achieve a turbidity equivalent to 0.5 McFarland standard, which was subsequently diluted into the assay plate to achieve 5×10^5 CFU/mL. Assays plates were prepared by 2-fold dilution of compound across the plate and included a positive growth control.
In general terms: Broth dilution looks for growth in wells or tubes with falling amounts of substance.

The test system of test [2] is Staphylococcus aureus, MRSA (ATCC 33591). The test is described as above. It counts as cell-based. The following applies: read-out: MIC Staphylococcus aureus, MRSA (ATCC 33591).
Excerpt: as §1
Briefly, the microbroth dilution MIC method was used to quantitatively measure the in vitro antibacterial activity of a compound against a given bacterial isolate. The following bacterial strains were evaluated: Staphylococcus aureus, MRSA (ATCC 33591) and Streptococcus pneumoniae (ATCC 49619). Bacteria were grown in cation-adjusted Mueller-Hinton broth, with additions as required per species growth requirements (e.g. 3% lysed horse blood for fastidious organisms such as S. pneumoniae). A direct colony suspension in saline was prepared from colonies on an overnight agar plate to achieve a turbidity equivalent to 0.5 McFarland standard, which was subsequently diluted into the assay plate to achieve 5×10^5 CFU/mL. Assays plates were prepared by 2-fold dilution of compound across the plate and included a positive growth control.

The mark [3] stands for this setting: ATCC49619, read-out: MIC Streptococcus pneumoniae (ATCC 49619).
[4] abbreviates: ATCC49619, microbroth dilution, 3% lysed horse blood, 35° C. for 16-20 hours, read-out: MIC Streptococcus pneumoniae (ATCC 49619).
Where [5] appears, read: microbroth dilution, cation-adjusted Mueller-Hinton broth, 35° C. for 16-20 hours.

For orientation: MIC means the lowest concentration that inhibits growth of the organism. For `C=C[C@]1(C)C[C@@H](OC(=O)CNc2ccc3c(c2)B(O)OC3CN)[C@]2(C)[C@H](C)CC[C@]3(CCC(=O)[C@H]32)[C@@H](C)[C@@H]1O` (stereo partly drawn) [Compound 52, (3aR,4R,5R,7S,8S,9R,9aS,12R)-8-hydroxy-4,7,9,12-tetramethyl-3-oxo-7-vinyldecahydro-4,9a-propanocyclopenta[8]annulen-5-yl (3-(aminomethyl)-1-hydroxy-1,3-dihydrobenzo[c][1,2]oxaborol-6-yl)glycinate], the MIC in test [1] (setting [3]) and in test [2] was 0.5 to 2 mg/L (≈ 0.929 to 3.71 µM) in each case.
For the compound `C=C[C@]1(C)C[C@@H](OC(=O)CNc2ccc3c(c2F)B(O)OC3)[C@]2(C)[C@H](C)CC[C@]3(CCC(=O)[C@H]32)[C@@H](C)[C@@H]1O` [Compound 54, (3aR,4R,5R,7S,8S,9R,9aS,12R)-8-hydroxy-4,7,9,12-tetramethyl-3-oxo-7-vinyldecahydro-4,9a-propanocyclopenta[8]annulen-5-yl (7-fluoro-1-hydroxy-1,3-dihydrobenzo[c][1,2]oxaborol-6-yl)glycinate], the MIC in test [1] (setting [3]) was 0.5 to 2 mg/L (≈ 0.948 to 3.79 µM); in test [2] it was under 0.25 mg/L.
The like results for `C=C[C@]1(C)C[C@@H](OC(=O)COC(=O)Nc2ccc3c(c2F)B(O)OC3)[C@]2(C)[C@H](C)CC[C@]3(CCC(=O)[C@H]32)[C@@H](C)[C@@H]1O` [Compound 55, (3aR,4R,5R,7S,8S,9R,9aS,12R)-8-hydroxy-4,7,9,12-tetramethyl-3-oxo-7-vinyldecahydro-4,9a-propanocyclopenta[8]annulen-5-yl 2-(((7-fluoro-1-hydroxy-1,3-dihydrobenzo[c][1,2]oxaborol-6-yl)carbamoyl)oxy)acetate] were, in that order, 0.5 to 2 mg/L (≈ 0.875 to 3.5 µM) and 0.5 to 2 mg/L (≈ 0.875 to 3.5 µM).
For the compound `C=C[C@]1(C)C[C@@H](OC(=O)NCc2ccc3c(c2)B(O)OC3)[C@]2(C)[C@H](C)CC[C@]3(CCC(=O)[C@H]32)[C@@H](C)[C@@H]1O` [Compound 56, (3aR,4R,5R,7S,8S,9R,9aS,12R)-8-hydroxy-4,7,9,12-tetramethyl-3-oxo-7-vinyldecahydro-4,9a-propanocyclopenta[8]annulen-5-yl ((1-hydroxy-1,3-dihydrobenzo[c][1,2]oxaborol-6-yl)methyl) carbamate], the MIC in test [1] (setting [4]) is 0.5 to 2 mg/L (≈ 0.981 to 3.93 µM); in test [2] (setting [5]), under 0.25 mg/L.
`C=C[C@]1(C)C[C@@H](OC(=O)NCc2ccc3c(c2F)B(O)OC3)[C@]2(C)[C@H](C)CC[C@]3(CCC(=O)[C@H]32)[C@@H](C)[C@@H]1O` [Compound 57, (3aR,4R,5R,7S,8S,9R,9aS,12R)-8-hydroxy-4,7,9,12-tetramethyl-3-oxo-7-vinyldecahydro-4,9a-propanocyclopenta[8]annulen-5-yl ((7-fluoro-1-hydroxy-1,3-dihydrobenzo[c][1,2]oxaborol-6-yl)methyl)carbamate]: the MIC was 0.5 to 2 mg/L (≈ 0.948 to 3.79 µM) in test [1] (setting [3]) and under 0.25 mg/L in test [2].
The like results for `C=C[C@]1(C)C[C@@H](OC(=O)CNCc2ccc3c(c2)B(O)OC3)[C@]2(C)[C@H](C)CC[C@]3(CCC(=O)[C@H]32)[C@@H](C)[C@@H]1O` [Compound 59, (3aR,4R,5R,7S,8S,9R,9aS,12R)-8-hydroxy-4,7,9,12-tetramethyl-3-oxo-7-vinyldecahydro-4,9a-propanocyclopenta[8]annulen-5-yl ((1-hydroxy-1,3-dihydrobenzo[c][1,2]oxaborol-6-yl)methyl)glycinate] were, in that order, 4 to 32 mg/L (≈ 7.64 to 61.1 µM) and 0.5 to 2 mg/L (≈ 0.955 to 3.82 µM).
Taken in the same sequence, the figures for `C=C[C@]1(C)C[C@@H](OC(=O)CNCc2ccc3c(c2)B(O)OC3(C)C)[C@]2(C)[C@H](C)CC[C@]3(CCC(=O)[C@H]32)[C@@H](C)[C@@H]1O` [Compound 60, (3aR,4R,5R,7S,8S,9R,9aS,12R)-8-hydroxy-4,7,9,12-tetramethyl-3-oxo-7-vinyldecahydro-4,9a-propanocyclopenta[8]annulen-5-yl ((1-hydroxy-3,3-dimethyl-1,3-dihydrobenzo[c][1,2]oxaborol-6-yl)methyl)glycinate] were 4 to 32 mg/L (≈ 7.25 to 58 µM) and 0.5 to 2 mg/L (≈ 0.907 to 3.63 µM).
Taken in the same sequence, the figures for `C=C[C@]1(C)C[C@@H](OC(=O)CSc2ccc3c(c2)B(O)OC3)[C@]2(C)[C@H](C)CC[C@]3(CCC(=O)[C@H]32)[C@@H](C)[C@@H]1O` [Compound 61, (3aR,4R,5R,7S,8S,9R,9aS,12R)-8-hydroxy-4,7,9,12-tetramethyl-3-oxo-7-vinyldecahydro-4,9a-propanocyclopenta[8]annulen-5-yl 2-((1-hydroxy-1,3-dihydrobenzo[c][1,2]oxaborol-6-yl)thio)acetate] were under 0.25 mg/L and under 0.25 mg/L.
Consider `C=C[C@]1(C)C[C@@H](OC(=O)C[S@@+]([O-])c2ccc3c(c2)B(O)OC3)[C@]2(C)[C@H](C)CC[C@]3(CCC(=O)[C@H]32)[C@@H](C)[C@@H]1O` [Compound 62, (3aR,4R,5R,7S,8S,9R,9aS,12R)-8-hydroxy-4,7,9,12-tetramethyl-3-oxo-7-vinyldecahydro-4,9a-propanocyclopenta[8]annulen-5-yl2-((R)-(1-hydroxy-1,3-dihydrobenzo[c][1,2]oxaborol-6-yl)sulfinyl)acetate], for which the MIC in test [1] (setting [3]) is 0.5 to 2 mg/L (≈ 0.922 to 3.69 µM); in test [2], under 0.25 mg/L.
Taken in the same sequence, the figures for `C=C[C@]1(C)C[C@@H](OC(=O)C[S@+]([O-])c2ccc3c(c2)B(O)OC3)[C@]2(C)[C@H](C)CC[C@]3(CCC(=O)[C@H]32)[C@@H](C)[C@@H]1O` [Compound 63, (3aR,4R,5R,7S,8S,9R,9aS,12R)-8-hydroxy-4,7,9,12-tetramethyl-3-oxo-7-vinyldecahydro-4,9a-propanocyclopenta[8]annulen-5-yl 2-((S)-(1-hydroxy-1,3-dihydrobenzo[c][1,2]oxaborol-6-yl)sulfinyl)acetate] were 4 to 32 mg/L (≈ 7.37 to 59 µM) and 0.5 to 2 mg/L (≈ 0.922 to 3.69 µM).
For `C=C[C@]1(C)C[C@@H](OC(=O)CS(=O)(=O)c2ccc3c(c2)B(O)OC3)[C@]2(C)[C@H](C)CC[C@]3(CCC(=O)[C@H]32)[C@@H](C)[C@@H]1O` [Compound 64, (3aR,4R,5R,7S,8S,9R,9aS,12R)-8-hydroxy-4,7,9,12-tetramethyl-3-oxo-7-vinyldecahydro-4,9a-propanocyclopenta[8]annulen-5-yl 2-((1-hydroxy-1,3-dihydrobenzo[c][1,2]oxaborol-6-yl)sulfonyl)acetate], the MIC was 0.5 to 2 mg/L (≈ 0.895 to 3.58 µM) in test [1] (setting [3]) and under 0.25 mg/L in test [2].
Taken in the same sequence, the figures for `C=C[C@]1(C)C[C@@H](OC(=O)CSc2ccc3c(c2F)B(O)OC3)[C@]2(C)[C@H](C)CC[C@]3(CCC(=O)[C@H]32)[C@@H](C)[C@@H]1O` [Compound 65, (3aR,4R,5R,7S,8S,9R,9aS,12R)-8-hydroxy-4,7,9,12-tetramethyl-3-oxo-7-vinyldecahydro-4,9a-propanocyclopenta[8]annulen-5-yl 2-((7-fluoro-1-hydroxy-1,3-dihydrobenzo[c][1,2]oxaborol-6-yl)thio)acetate] were 0.5 to 2 mg/L (≈ 0.918 to 3.67 µM) and under 0.25 mg/L.
As for `C=C[C@]1(C)C[C@@H](OC(=O)C[S@+]([O-])c2ccc3c(c2F)B(O)OC3)[C@]2(C)[C@H](C)CC[C@]3(CCC(=O)[C@H]32)[C@@H](C)[C@@H]1O` [Compound 66, (3aR,4R,5R,7S,8S,9R,9aS,12R)-8-hydroxy-4,7,9,12-tetramethyl-3-oxo-7-vinyldecahydro-4,9a-propanocyclopenta[8]annulen-5-yl 2-((S)-(7-fluoro-1-hydroxy-1,3-dihydrobenzo[c][1,2]oxaborol-6-yl)sulfinyl)acetate], the results for the MIC in test [1] (setting [3]) and in test [2] were 4 to 32 mg/L (≈ 7.14 to 57.1 µM) and 0.5 to 2 mg/L (≈ 0.892 to 3.57 µM), respectively.
Take `C=C[C@]1(C)C[C@@H](OC(=O)C[S@@+]([O-])c2ccc3c(c2F)B(O)OC3)[C@]2(C)[C@H](C)CC[C@]3(CCC(=O)[C@H]32)[C@@H](C)[C@@H]1O` [Compound 67, (3aR,4R,5R,7S,8S,9R,9aS,12R)-8-hydroxy-4,7,9,12-tetramethyl-3-oxo-7-vinyldecahydro-4,9a-propanocyclopenta[8]annulen-5-yl 2-((R)-(7-fluoro-1-hydroxy-1,3-dihydrobenzo[c][1,2]oxaborol-6-yl)sulfinyl)acetate]: the MIC was 0.5 to 2 mg/L (≈ 0.892 to 3.57 µM) in test [1] (setting [3]) and under 0.25 mg/L in test [2].
Take `C=C[C@]1(C)C[C@@H](OC(=O)COc2ccc3c(c2F)B(O)OCC3)[C@]2(C)[C@H](C)CC[C@]3(CCC(=O)[C@H]32)[C@@H](C)[C@@H]1O` [Compound 68, (3aR,4R,5R,7S,8S,9R,9aS,12R)-8-hydroxy-4,7,9,12-tetramethyl-3-oxo-7-vinyldecahydro-4,9a-propanocyclopenta[8]annulen-5-yl 2-((8-fluoro-1-hydroxy-3,4-dihydro-1H-benzo[c][1,2]oxaborinin-7-yl)oxy)acetate]: the MIC in test [1] (setting [4]) was 0.5 to 2 mg/L (≈ 0.922 to 3.69 µM); in test [2] (setting [5]), under 0.25 mg/L.
